Data reported in patent publication US20200157135A1, “SIDE-CHAIN MODIFIED ERGOSTEROL AND STIGMASTEROL DERIVATIVES AS LIVER X RECEPTOR MODULATORS” (Ospedale San Raffaele srl, priority 2017, published 2020).

Experiments:
hLXRα = target: T1, hLXRα (Homo sapiens, UniProt Q13133); assay: luciferase assay with GAL-4 chimeric hLXRα receptor in human embryonic kidney 293 cells; type: cell-based
T1 sequence (Q13133 209-447 limits assumed): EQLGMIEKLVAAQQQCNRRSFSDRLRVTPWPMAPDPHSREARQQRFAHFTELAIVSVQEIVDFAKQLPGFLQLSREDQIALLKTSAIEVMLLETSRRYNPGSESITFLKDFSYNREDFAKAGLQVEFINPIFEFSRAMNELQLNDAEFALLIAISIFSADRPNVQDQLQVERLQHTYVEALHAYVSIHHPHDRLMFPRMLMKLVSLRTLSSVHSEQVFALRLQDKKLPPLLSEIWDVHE
Experimental: (§1) All the synthesized compounds were first tested for their ability to activate LXRs by using luciferase assays with GAL-4 chimeric receptors. These were performed by co-transfecting plasmids encoding hLXRα- and β-binding domains fused to GAL-4, with the respective responsive element conjugated with the luciferase reporter gene into the human embryonic kidney 293 cells.
(§2) Cell Culture and Co-transfection Assays. Human embryonic Kidney 293 cells (American Type Culture Collection) were cultured in Dulbecco's Modified Eagle's medium containing 10% of fetal bovine serum at 37° C. in humidified atmosphere of 5% CO2. HEK293 cells (4×10^4 cells per well) were transiently transfected in 48 well plate with the reporter plasmids pMH100X4-TK-luc (100 ng/well), Renilla (22 ng/well) together with 100 ng/well of pCMX-Gal4-RXR, pCMX-Gal4-PPAR-γ, pCMX-Gal4-PXR, pFA-CMV-FXR pCMX-Gal4-LXR-α or pCMX-Gal4-LXR-β plasmids using X-tremeGENE 9 DNA Transfection Reagent (Roche). Six hours after transfection, the cells were treated with the appropriate compound for 24 hours. Luciferase activities were analyzed by luciferase Dual Reporter Assay Systems (Promega) according to the manufacturer's protocol. GAL4-LXRs, GAL4-PPAR-γ, GAL4-RXR and TK-MHC100-luc plasmids were described in Villablanca et al.49 GAL4-PXR was a kind gift of Dr. Enrique Sainz (The Scripps Research Institute, La Jolla, USA). GAL4-FXR was a kind gift of Dr. Daniel Merk (Goethe-University Frankfurt am Main). The results obtained by luciferase assays and reported in Table 1 are from three to five independent experiments.
(§3) Statistical analysis. Data are expressed as mean±SEM and were analyzed for significance by ANOVA with Dunnet's multiple comparison tests. The analysis was performed with Prism software. Data in Table 1 are expressed as EC50±SD. In particular, the standard deviations were obtained by calculating the mean of the EC50 of each experiment (three to five independent experiments). The efficacy (%) of the compounds was calculated as the percentage of the compound effect, in terms of LXRα or β activation, versus 8 μM of 22R—HC±SD. The analyses were performed with Prism software.

FASN = assay: qPCR of FASN expression in PMA-differentiated U937 cells; type: cell-based, human; conditions: U937 differentiated with PMA 72 h; 10 μM, 6 hours
Experimental: (§4) U937 cells differentiated with PMA for 72 hours were treated with T0901317 (10 μM), 22R—HC (3) or with the tested compound (10 μM). […] (n=3/group). *p<0.05, **p<0.01, ***p<0.001.
LXR agonists induce the expression of target genes, which are involved in cholesterol homeostasis, particularly in the reverse cholesterol transport pathway.43 Indeed, LXR agonists induce the expression of ABCA1 both in macrophages and in many tissues of the periphery such as the intestine.44 Moreover, ABCA1 regulates cholesterol efflux to APOAI acceptors.45 In the liver, LXR activation promotes the biosynthesis of fatty acids, a process also termed as de novo lipogenesis by inducing the expression of the master regulator of hepatic lipogenesis sterol-regulatory element-binding protein 1C (SREBP-1c), as well as several downstream genes in the SREBP-1c pathway, including steroyl CoA desaturase 1 (SCD1) and fatty acid synthase (FASN).43 Therefore, it was investigated, by quantitative PCR (qPCR), the expression of ABCA1, SREBP1c, FASN, and SCD1, by using RNA from monocytic U937 cells (FIG. 3) and from hepatic HepG2 cells (FIG. 4) stimulated with our compounds, the non-steroidal agonist T0901317 or the endogenous ligand 22R—HC (3) as positive controls. […] Then, the induction of genes involved in the lipogenesis using the hepatic cell line HepG2. 43,22 was evaluated. […]
Quantitative Real-Time-PCR. […]

SCD1 = assay: qPCR of SCD1 expression in PMA-differentiated U937 cells; type: cell-based, human; conditions: U937 differentiated with PMA 72 h; 10 μM, 6 hours
Experimental: as §4
LXR agonists induce the expression of target genes, which are involved in cholesterol homeostasis, particularly in the reverse cholesterol transport pathway.43 Indeed, LXR agonists induce the expression of ABCA1 both in macrophages and in many tissues of the periphery such as the intestine.44 Moreover, ABCA1 regulates cholesterol efflux to APOAI acceptors.45 In the liver, LXR activation promotes the biosynthesis of fatty acids, a process also termed as de novo lipogenesis by inducing the expression of the master regulator of hepatic lipogenesis sterol-regulatory element-binding protein 1C (SREBP-1c), as well as several downstream genes in the SREBP-1c pathway, including steroyl CoA desaturase 1 (SCD1) and fatty acid synthase (FASN).43 Therefore, it was investigated, by quantitative PCR (qPCR), the expression of ABCA1, SREBP1c, FASN, and SCD1, by using RNA from monocytic U937 cells (FIG. 3) and from hepatic HepG2 cells (FIG. 4) stimulated with our compounds, the non-steroidal agonist T0901317 or the endogenous ligand 22R—HC (3) as positive controls. […] Then, the induction of genes involved in the lipogenesis using the hepatic cell line HepG2. 43,22 was evaluated. […] Over the time, indeed, substantial efforts have been dedicated to the identification of LXR ligands able to turning on ABC transporter genes, without affecting lipogenic genes levels. This task is still one of the major challenge to the discovery of a clinically useful LXR modulator for atherosclerosis.
Quantitative Real-Time-PCR. U937 cell line was differentiated in foam macrophages with phorbol 12-myristate 13-acetate (PMA) 10 ng/ml (Sigma) for 72 hours at 37° C. in […] at the concentration of 3×10^6 cells in 10 ml RPMI 10% FBS. At day 3 nuclear receptor ligands were added for 6 hours. HepG2 cells were treated with the ligands as described by Quinet et al.22 Total RNA was purified by TRIZOL (Invitrogen, Carlsbad, Calif., USA). Reverse transcription was performed incubating 2 μg of total RNA 1 hour at 42° C. with MLV-reverse transcriptase (Promega). Quantitative PCR was performed using Sybr Green Master Mix (Applied Biosystems) and real-time PCR (Viia 7 Real Time PCR System, Applied Biosystems). All PCR reactions were done in triplicate. The comparative Ct method was used to quantify transcripts that were normalized for human GAPDH. the following primer pairs were used: […]

hLXRβ = target: T2, hLXRβ (Homo sapiens, UniProt P55055); assay: luciferase assay with GAL-4 chimeric hLXRβ receptor in human embryonic kidney 293 cells; type: cell-based
T2 sequence (P55055 222-460 limits assumed): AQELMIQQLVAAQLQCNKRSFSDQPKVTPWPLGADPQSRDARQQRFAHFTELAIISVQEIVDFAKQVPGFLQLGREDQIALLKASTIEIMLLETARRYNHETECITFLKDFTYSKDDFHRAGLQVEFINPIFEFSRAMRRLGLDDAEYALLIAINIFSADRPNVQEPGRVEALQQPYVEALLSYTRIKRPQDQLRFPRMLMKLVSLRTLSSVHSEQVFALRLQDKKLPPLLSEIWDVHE
Experimental: as §1, §2, §3

Which melting point does the source give for CC(C)[C@@H](C)C[C@@H](O)[C@@H](C)[C@H]1CC[C@H]2C3=CC=C4C[C@@H](O)CC[C@]4(C)[C@H]3CC[C@]12C here?
The melting point was 117.3 to 121 °C.

Which results are given for CC(C)CC[C@@H](O)[C@@H](C)[C@H]1CC[C@H]2[C@@H]3CC=C4C[C@@H](O)CC[C@]4(C)[C@H]3CC[C@]12C [22R-HC (3), 22(R)-hydroxycholesterol, reference compound]?
EC50 (hLXRα; GAL4-hLXRα luciferase, HEK293, dose-response 32-1 μM, mean of three-five independent experiments, read-out: LXRα EC50 (μM) ± SD): 6.71 ± 0.71 µM; Emax (hLXRα; HEK293, 24 h, read-out: LXRα Efficacy (%) ± SD): 100%; FASN mRNA levels (FASN): did not induce up-regulation of FASN and SCD1 transcripts; SCD1 expression (SCD1): did not induce up-regulation of FASN and SCD1 transcripts; EC50 (hLXRβ; GAL4-hLXRβ luciferase, HEK293, dose-response 32-1 μM, mean of three-five independent experiments, read-out: LXRβ EC50 (μM) ± SD): 4.75 ± 0.12 µM; Emax (hLXRβ; HEK293, 24 h, read-out: LXRβ Efficacy (%) ± SD, % of compound effect versus 8 μM of 22R-HC): 100%
